According to patent publication US20080255181A1, “Methods for treating podocyte-related disorders” (University of Heidelberg, priority 2006, published 2008):
“Also recorded” adds a separate entry of the source.

Columns and labels:
[1] = test system: BID; experiment: Western blotting of BID in podocytes; type: cell-based, mouse; conditions: Compound A exposure, HCl
From the text: (§1) A well established cell model of conditionally immortalized murine podocytes was used to determine the impact of calcimimetics on podocyte function. These immortalized podocyte cell lines were generated from the Inmortomouse® (Charles River, Wilmington, Mass., USA) carrying a temperature-sensitive T-antigen as transgene, under the control of an interferon-γ inducible promoter. […]
(§2) Protein extraction from cultured podocytes and SDS-PAGE were done as previously described (Weins et al., supra). Total and phosphorylated proteins were detected by Western blotting as described previously, using the following primary antibodies: Bad (dilution 1:1000), pBad (1:1000), Bax (1:1000), Bid (1:1000), Bcl-xl (1:500), CREB (1:4000), ERK1/2 (1:4000), pERK 1/2 (1:4000), pJNK (1:1000), p38MAPK (1:500), p90RSK (1:2000) (Cell Signaling Technology, Beverly, Mass., USA), Bcl-2 (1:500), Caveolin-1 (1:500), 3-Actin (1:10000) (Abcam, Cambridge, UK) CaSR 1:100 (Alpha Diagnostics, San Antonio, Tex., USA). […]

[2] = test system: podocytes; experiment: FACS analysis of PAN-induced apoptosis of podocytes; type: cell-based, mouse; conditions: PAN 30 μg/ml; for reduction of PAN induced increase in apoptosis rate: Compound A 10 mmol/l as printed, p<0.05; for apoptosis rate of cultured podocytes: baseline less than 20% in controls
From the text: (§3) A well established cell model of conditionally immortalized murine podocytes was used to determine the impact of calcimimetics on podocyte function. These immortalized podocyte cell lines were generated from the Inmortomouse® (Charles River, Wilmington, Mass., USA) carrying a temperature-sensitive T-antigen as transgene, under the control of an interferon-γ inducible promoter. They were maintained cultured as previously described (Weins A et al. (2001) J Cell Biol 155: 393-404; Asanuma K. et al. (2005). J Clin Invest 115: 1188-1198. In brief, the cell line was maintained in RPMI 1640 (PAA Laboratories, Pasching, Austria) supplemented with 10% fetal bovine serum (PAA Laboratories, Pasching, Austria), 100 U/ml penicillin/streptomycin (Biochrom AG, Berlin, Germany) in humidified incubators with air-5% CO2. In order to induce differentiation, podocytes were grown on collagen type I (BD Bioscience, Bedford, Mass., USA) under permissive conditions at 33° C. with IFN-γ (10 U/ml) (Roche, Mannheim, Germany) or under non-permissive conditions at 37° C. without IFN-γ for at least 10 days.
All cells were treated as described, then washed and trypsinized. All washes and eluted cells were collected, pooled, and centrifuged. After washing cells with Annexin-binding buffer, cells were incubated with FITC-labelled Annexin-V (Molecular Probes) and propidium iodide (Molecular Probes) for 30 min. Annexin-V binds phosphatidylserine, which is translocated to the outer cell membrane during the initial stages of apoptosis. Propidium iodide was also applied to cells in order to distinguish necrosis from apoptosis. Cells were analyzed by flow cytometry (FACScalibur, Becton Dickinson). Apoptosis-associated fluorescence was measured using a log scale. Cells with high propidium iodide content were necrotic and were excluded from the analysis.
This example summarizes the results of FACS analyses. […] PAN (30 μg/ml) increased apoptosis rate of cultured podocytes to 44 and 78% correspondingly after 48 and 60 hrs of incubation, as compared to a baseline apoptosis rate of less than 20% in respective controls (FIG. 11). Addition of Compound A (10 mmol/l) reduced PAN induced increase in apoptosis rate in three independent experiments by 55 and 60% after 48 and 60 hrs respectively (both p<0.05).

[3] = test system: JNK; experiment: Western blotting of JNK activation in podocytes; type: cell-based, mouse; conditions: any time-point, HCl
From the text: as §1, §2

[4] = test system: intracellular proteins; experiment: Activation of intracellular proteins in podocytes by calcimimetic; type: cell-based, mouse; conditions: 4 nmol/l
From the text: as §1, §2

[5] = test system: podocytes genes; experiment: Microarray analysis of Compound A-dependent regulation of podocyte genes; type: cell-based, mouse; conditions: 10 nmol/l, 12 hrs
[6] = test system: CREB; experiment: Western blotting of CREB phosphorylation in podocytes; type: cell-based, mouse
From the text: as §3, §2
(§4) This CREB activation is able to mediate signals from numerous physiological stimuli, resulting in the regulation of a broad array of cellular responses, such as regulating of apoptosis associated genes. Therefore downstream pro-survival factors were analyzed. […]

[7] = test system: p90RSK; experiment: Western blotting of p90RSK phosphorylation in podocytes; type: cell-based, mouse; conditions: 10 nmol/l, HCl
From the text: as §1, §2, §4

[8] = test system: BAD; experiment: Western blotting of BAD phosphorylation in podocytes; type: cell-based, mouse; conditions: 10 nmol/l
From the text: as §1, §2

[9] = test system: ERK1/2; experiment: Western blotting of ERK1/2 phosphorylation in podocytes; type: cell-based, mouse
From the text: as §3
Protein extraction from cultured podocytes and SDS-PAGE were done as previously described (Weins et al., supra). Total and phosphorylated proteins were detected by Western blotting as described previously, using the following primary antibodies: Bad (dilution 1:1000), pBad (1:1000), Bax (1:1000), Bid (1:1000), Bcl-xl (1:500), CREB (1:4000), ERK1/2 (1:4000), pERK 1/2 (1:4000), pJNK (1:1000), p38MAPK (1:500), p90RSK (1:2000) (Cell Signaling Technology, Beverly, Mass., USA), Bcl-2 (1:500), Caveolin-1 (1:500), 3-Actin (1:10000) (Abcam, Cambridge, UK) CaSR 1:100 (Alpha Diagnostics, San Antonio, Tex., USA). Western blot analysis was carried out according to standard protocols and visualized using enhanced chemiluminescence (ECL) immunoblot detection kits (Amersham Biosciences, Little Chalfont Buckinghamshire, UK).
It has been established previously that the activation of the CaSR induces a variety of intracellular signalling pathways such as the protein kinase C(PKC) and the MAP kinase pathways.
In addition, U0126 suppressed the phosphorylation of CREB (FIG. 10). Blockade of MEK1/2 and MAP kinases can not be bypassed via activation of other pathways such as PKC.

[10] = test system: p38 MAPK; experiment: Western blotting of p38 MAPK phosphorylation in podocytes; type: cell-based, mouse; conditions: 10 nmol/l, after 5 min and again after 30 and 60 min, HCl
From the text: as §1, §2

[11] = test system: Bcl-xL; experiment: Western blotting of Bcl-xL expression in podocytes; type: cell-based, mouse; conditions: time-dependent, HCl
From the text: as §1, §2

[12] = test system: PAN-treated rats; experiment: Animal model of PAN nephrosis (proteinuria); type: in vivo, rat
Protocol: Puromycin aminonucleoside (PAN), which induces oxidant injury in cells via the xanthine oxidase pathway, has been used extensively as a model of podocyte injury. Podocyte injury in this model can be ameliorated by inhibitors of oxidants. Following PAN injection (15 mg/100 g body weight), injury in the rat podocytes is manifest by loss of interdigitating foot processes, detachment from the GBM, pseudocyst formation, reduction in anionic charge, attenuation of the underlying GBM, and associated leakiness of the glomerular filter resulting in proteinuria. The PAN model also progresses to a patchy glomerular scarring process [focal glomerulosclerosis (FSGS)]. FSGS in humans is commonly associated with progression to end-stage renal disease (ESRD) requiring renal replacement therapy. […] Podocytes were stained against WT-1, a specific marker for podocytes and counted under an immunofluorescence microscope.
Male Sprague-Dawley rats weighing approximately 100 g were administered intraperitoneal PAN (Sigma Company, St. Louis, Mo., USA) at a dose of 15 mg/100 g body weight, or additionally at the same time a single injection of Compound A (doses 2 mg/100 g body weight) 4 hours before, or an equivalent volume of 0.9% saline (0.2-0.4 ml/animal) (N=10-15 animals per group). […] Protein/Creatinin ratio was measured with ADVIA 2400, Bayer Diagnostics. […]

[13] = inhibitor 10 mM as printed, Compound A 10 nmol

COc1cccc([C@@H](C)NCCCc2ccccc2Cl)c1.Cl [Compound A, N-(3-[2-chlorophenyl]-propyl)-R-▪-methyl-3-methoxybenzylamine HCl]
BID [1]: not affected; also recorded: not influenced
PAN induced apoptosis of podocytes (FIG. 11 legend) ([2]; Compound A 10 nmol/l, 48 h and 60 h): prevents
reduction of PAN induced increase in apoptosis rate ([2]; 48 hrs): 55%
reduction of PAN induced increase in apoptosis rate ([2]; 60 hrs): 60%
JNK activation [3]: no activation; also recorded: not activated
activation of intracellular proteins [4]: activation of intracellular proteins was demonstrated
CaSR-regulated genes/number of genes analyzed: Adherens junction [5]: 11/62
CaSR-regulated genes/number of genes analyzed: Adhesion-extracellular matrix [5]: 14/84
CaSR-regulated genes/number of genes analyzed: Apoptosis [5]: 9/72
CaSR-regulated genes/number of genes analyzed: Cytokine receptor interactions [5]: 29/187
CaSR-regulated genes/number of genes analyzed: Focal Adhesions [5]: 30/174
CaSR-regulated genes/number of genes analyzed: MAPK signaling pathways [5]: 30/193
CaSR-regulated genes/number of genes analyzed: Nfkb signaling [5]: 8/79
CaSR-regulated genes/number of genes analyzed: Regulation of actin cytoskeleton [5]: 26/171
CaSR-regulated genes/number of genes analyzed: TGF beta signaling pathway [5]: 9/62
CaSR-regulated genes/number of genes analyzed: Toll-like-receptor signaling [5]: 10/69
CaSR-regulated genes/number of genes analyzed: Wnt signaling pathways [5]: 15/116
mRNA expression of pro-apoptotic genes calpain 1, calpain small subunit 1, caspase 7 and caspase 8 [5]: down-regulated
mRNA expression of pro-survival factor Bcl-2 [5]: up-regulated
genes significantly regulated out of 15000 genes investigated ([5]; vs untreated cells): 10%
CREB phosphorylation ([6]; 10 nmol/l, HCl): leads to CREB phosphorylation; also recorded: induction
p90RSK phosphorylation [7]: phosphorylated in a similar time pattern as ERK1/2; also recorded: induction
amount of non-phosphorylated BAD [8]: decreases
amount of phosphorylated BAD ([8]; time-dependent): clearly increases
phosphorylation of ERK1/2 ([9]; 4 to 50 nmol/l, dose- and time-dependent, HCl): phosphorylation of ERK1/2 occurs; also recorded: time and dose dependent phosphorylation
activation of ERK1/2 ([9]; 10 mol/l as printed, not further increased by higher concentrations): strong activation
time of first detectable ERK1/2 phosphorylation steps ([9]; Compound A incubation): 2 min
time of maximal ERK1/2 phosphorylation ([9]; Compound A incubation): 10 min
p38 MAPK phosphorylation [10]: clear biphasic response pattern; also recorded: biphasic phosphorylation
Bcl-xl expression [11]: induced in a time-dependent way; also recorded: increased expression
proteinuria in group receiving PAN and Compound A ([12]; male Sprague-Dawley rats, PAN 15 mg/100 g i.p., Compound A 2 mg/100 g body weight single injection, HCl): significant protection; also recorded: successfully impeded; also recorded: prevent the development of proteinuria
proteinuria after a single dose, compared to untreated control rats receiving saline ([12]; rats, after day 6, intraperitoneal): significantly induced

N#CC(=C(/N)Sc1ccccc1N)/C(C#N)=C(\N)Sc1ccccc1N [Compound U0126, reference compound]
phosphorylation of CREB in presence of MEK1/2 inhibitor ([6]; inhibitor 10 μM): suppressed
calcimimetic-induced phosphorylation of CREB in presence of inhibitor (FIG. 10 legend) [6, 13]: strongly inhibits
Compound A-induced phosphorylation of ERK1/2 in presence of MEK1/2 inhibitor ([9]; inhibitor 10 μM): abolish completely
calcimimetic-induced phosphorylation of ERK 1/2 in presence of inhibitor (FIG. 10 legend) [9, 13]: strongly inhibits

CN(C)c1ncnc2c1ncn2[C@@H]1O[C@H](CO)[C@@H](N)[C@H]1O [PAN, puromycin aminonucleoside, reference compound]
apoptosis rate of cultured podocytes ([2]; 48 hrs of incubation): 44%
apoptosis rate of cultured podocytes ([2]; 60 hrs of incubation): 78%
